Test results taken from ChEMBL document CHEMBL4715697, “Synthesis and biological activity of benzamide DNA minor groove binders” (2016).

Experiments:
Assay type in all cases: functional
COLO 205 = assay: Growth inhibition of human COLO 205 cells incubated for 48 hrs by sulforhodamine B assay
CAKI-1 = assay: Growth inhibition of human CAKI-1 cells incubated for 48 hrs by sulforhodamine B assay
HOP-62 [1] = assay: Growth inhibition of human HOP-62 cells assessed as cell growth at 1 uM incubated for 48 hrs by sulforhodamine B assay relative to control; conditions: read-out: Activity
RPMI-8226 = assay: Growth inhibition of human RPMI-8226 cells assessed as cell growth at 100 uM incubated for 48 hrs by sulforhodamine B assay relative to control; conditions: read-out: Activity
SK-MEL-28 [2] = assay: Growth inhibition of human SK-MEL-28 cells assessed as cell growth at 1 uM incubated for 48 hrs by sulforhodamine B assay relative to control; conditions: read-out: Activity
MOLT-4 [3] = assay: Growth inhibition of human MOLT-4 cells incubated for 48 hrs by sulforhodamine B assay
NCI-H522 [4] = assay: Growth inhibition of human NCI-H522 cells assessed as cell growth at 0.1 uM incubated for 48 hrs by sulforhodamine B assay relative to control; conditions: read-out: Activity
HCT-15 = assay: Growth inhibition of human HCT-15 cells incubated for 48 hrs by sulforhodamine B assay
HOP-62 [5] = assay: Growth inhibition of human HOP-62 cells assessed as cell growth at 100 uM incubated for 48 hrs by sulforhodamine B assay relative to control; conditions: read-out: Activity
HT-29 [6] = assay: Growth inhibition of human HT-29 cells incubated for 48 hrs by sulforhodamine B assay
HT-29 [7] = assay: Growth inhibition of human HT-29 cells assessed as cell growth at 100 uM incubated for 48 hrs by sulforhodamine B assay relative to control; conditions: read-out: Activity
CCRF-CEM = assay: Growth inhibition of human CCRF-CEM cells assessed as cell growth at 0.1 uM incubated for 48 hrs by sulforhodamine B assay relative to control; conditions: read-out: Activity
SNB-75 = assay: Growth inhibition of human SNB-75 cells assessed as cell growth at 100 uM incubated for 48 hrs by sulforhodamine B assay relative to control; conditions: read-out: Activity
K562 = assay: Growth inhibition of human K562 cells assessed as cell growth at 100 uM incubated for 48 hrs by sulforhodamine B assay relative to control; conditions: read-out: Activity
SK-MEL-2 [8] = assay: Growth inhibition of human SK-MEL-2 cells assessed as cell growth at 1 uM incubated for 48 hrs by sulforhodamine B assay relative to control; conditions: read-out: Activity
M14 = assay: Growth inhibition of human M14 cells incubated for 48 hrs by sulforhodamine B assay
MDA-MB-435 [9] = assay: Growth inhibition of human MDA-MB-435 cells assessed as cell growth at 100 uM incubated for 48 hrs by sulforhodamine B assay relative to control; conditions: read-out: Activity
MDA-MB-231 [10] = assay: Growth inhibition of human MDA-MB-231 cells assessed as cell growth at 1 uM incubated for 48 hrs by sulforhodamine B assay relative to control; conditions: read-out: Activity
T47D [11] = assay: Growth inhibition of human T47D cells assessed as cell growth at 1 uM incubated for 48 hrs by sulforhodamine B assay relative to control; conditions: read-out: Activity
MOLT-4 [12] = assay: Growth inhibition of human MOLT-4 cells assessed as cell growth at 0.01 uM incubated for 48 hrs by sulforhodamine B assay relative to control; conditions: read-out: Activity
SK-MEL-2 [13] = assay: Growth inhibition of human SK-MEL-2 cells assessed as cell growth at 0.1 uM incubated for 48 hrs by sulforhodamine B assay relative to control; conditions: read-out: Activity
RXF 393 = assay: Growth inhibition of human RXF 393 cells assessed as cell growth at 1 uM incubated for 48 hrs by sulforhodamine B assay relative to control; conditions: read-out: Activity
MDA-MB-231 [14] = assay: Growth inhibition of human MDA-MB-231 cells incubated for 48 hrs by sulforhodamine B assay
SK-MEL-28 [15] = assay: Growth inhibition of human SK-MEL-28 cells assessed as cell growth at 0.1 uM incubated for 48 hrs by sulforhodamine B assay relative to control; conditions: read-out: Activity
MDA-MB-435 [16] = assay: Growth inhibition of human MDA-MB-435 cells assessed as cell growth at 0.1 uM incubated for 48 hrs by sulforhodamine B assay relative to control; conditions: read-out: Activity
SNB-19 = assay: Growth inhibition of human SNB-19 cells assessed as cell growth at 100 uM incubated for 48 hrs by sulforhodamine B assay relative to control; conditions: read-out: Activity
NCI-H522 [17] = assay: Growth inhibition of human NCI-H522 cells incubated for 48 hrs by sulforhodamine B assay
TK-10 = assay: Growth inhibition of human TK-10 cells assessed as cell growth at 0.01 uM incubated for 48 hrs by sulforhodamine B assay relative to control; conditions: read-out: Activity
HCC 2998 = assay: Growth inhibition of human HCC 2998 cells assessed as cell growth at 0.1 uM incubated for 48 hrs by sulforhodamine B assay relative to control; conditions: read-out: Activity
MCF7 = assay: Growth inhibition of human MCF7 cells assessed as cell growth at 100 uM incubated for 48 hrs by sulforhodamine B assay relative to control; conditions: read-out: Activity
NCI-H322M = assay: Growth inhibition of human NCI-H322M cells assessed as cell growth at 0.01 uM incubated for 48 hrs by sulforhodamine B assay relative to control; conditions: read-out: Activity
MDA-MB-468 = assay: Growth inhibition of human MDA-MB-468 cells assessed as cell growth at 1 uM incubated for 48 hrs by sulforhodamine B assay relative to control; conditions: read-out: Activity
SF-295 = assay: Growth inhibition of human SF-295 cells assessed as cell growth at 0.01 uM incubated for 48 hrs by sulforhodamine B assay relative to control; conditions: read-out: Activity
T47D [18] = assay: Growth inhibition of human T47D cells assessed as cell growth at 100 uM incubated for 48 hrs by sulforhodamine B assay relative to control; conditions: read-out: Activity
[19] = read-out: LC50 (the source's name)
[20] = read-out: pLC50 (the source's name) (converted)

CC(=O)Nc1cc(CO[Si](C)(C)C(C)(C)C)cc(NC(=O)c2ccc(C(=O)Nc3cccc(NC(=O)CCCN(C)C)c3)cc2)c1
107%: growth at 1 µM (T47D [11])
> 75.9 µM: GI50 (COLO 205; read-out: pGI50 (converted)) | LC50 (COLO 205; read-out: pLC50 (converted)) | TGI (COLO 205; read-out: pTGI) | GI50 (CAKI-1; read-out: pGI50 (converted)) | CC50 (CAKI-1; [20]) | TGI (CAKI-1; read-out: pTGI) | GI50 (MOLT-4 [3]; read-out: pGI50 (converted)) | CC50 (MOLT-4 [3]; [20]) | TGI (MOLT-4 [3]; read-out: pTGI) | GI50 (HCT-15; read-out: pGI50 (converted)) | CC50 (HCT-15; [20]) | TGI (HCT-15; read-out: pTGI) | GI50 (HT-29 [6]; read-out: pGI50 (converted)) | CC50 (HT-29 [6]; [20]) | TGI (HT-29 [6]; read-out: pTGI) | GI50 (M14; read-out: pGI50 (converted)) | CC50 (M14; [20]) | TGI (M14; read-out: pTGI) | GI50 (MDA-MB-231 [14]; read-out: pGI50 (converted)) | CC50 (MDA-MB-231 [14]; [20]) | TGI (MDA-MB-231 [14]; read-out: pTGI) | GI50 (NCI-H522 [17]; read-out: pGI50 (converted)) | CC50 (NCI-H522 [17]; [20]) | TGI (NCI-H522 [17]; read-out: pTGI)
90%: growth at 1 µM (MDA-MB-468)
98%: growth at 1 µM (SK-MEL-28 [2]) | growth at 0.1 µM (CCRF-CEM) | growth at 0.1 µM (MDA-MB-435 [16]) | growth at 0.01 µM (SF-295)
32%: growth at 100 µM (MCF7)
> 75 µM: GI50 (COLO 205; read-out: GI50) | LC50 (COLO 205; read-out: LC50) | TGI (COLO 205; read-out: TGI) | GI50 (CAKI-1; read-out: GI50) | CC50 (CAKI-1; [19]) | TGI (CAKI-1; read-out: TGI) | GI50 (MOLT-4 [3]; read-out: GI50) | CC50 (MOLT-4 [3]; [19]) | TGI (MOLT-4 [3]; read-out: TGI) | GI50 (HCT-15; read-out: GI50) | CC50 (HCT-15; [19]) | TGI (HCT-15; read-out: TGI) | GI50 (HT-29 [6]; read-out: GI50) | CC50 (HT-29 [6]; [19]) | TGI (HT-29 [6]; read-out: TGI) | GI50 (M14; read-out: GI50) | CC50 (M14; [19]) | TGI (M14; read-out: TGI) | GI50 (MDA-MB-231 [14]; read-out: GI50) | CC50 (MDA-MB-231 [14]; [19]) | TGI (MDA-MB-231 [14]; read-out: TGI) | GI50 (NCI-H522 [17]; read-out: GI50) | CC50 (NCI-H522 [17]; [19]) | TGI (NCI-H522 [17]; read-out: TGI)
106%: growth at 1 µM (MDA-MB-231 [10]) | growth at 1 µM (RXF 393)
100%: growth at 100 µM (HT-29 [7])
50%: growth at 100 µM (SNB-75)
58%: growth at 100 µM (T47D [18])
95%: growth at 0.1 µM (SK-MEL-28 [15]) | growth at 100 µM (SNB-19)
96%: growth at 0.01 µM (TK-10)
87%: growth at 100 µM (HOP-62 [5]) | growth at 0.01 µM (MOLT-4 [12])
91%: growth at 0.1 µM (NCI-H522 [4])
102%: growth at 0.1 µM (SK-MEL-2 [13]) | growth at 0.01 µM (NCI-H322M)
97%: growth at 1 µM (HOP-62 [1]) | growth at 0.1 µM (HCC 2998)
94%: growth at 100 µM (K562)
112%: growth at 1 µM (SK-MEL-2 [8])
104%: growth at 100 µM (RPMI-8226)
88%: growth at 100 µM (MDA-MB-435 [9])
